In patent US8049038B2, “Carnitine conjugates of adamantanamines derivatives as dual prodrugs for various uses” (priority 2006, dated 2011):

How the values were obtained:
[1] = Toxicity observed in mice after subcutaneous administration in the NMDA test; assay type: in vivo; details: male NIH-Swiss mice; 120 mg/kg SC; n=8 mice/group
Experimental: (§1) Memantine (30 mg/kg; SC) was used as a positive control in each experiment and there were n=8 mice/group for all conditions.

NMDA receptors = test: NMDA-induced seizure activity and lethality in mice (in vivo test for NMDA antagonist activity); details: male NIH-Swiss mice, 30 min before NMDA 200 mg/kg IP
Excerpt: Compounds 3-(3,5-dimethyladamantan-1-ylcarbamoyl)-(R)-2-hydroxypropyl)-trimethyl ammonium chloride [Formula 1(B); R1 and R2 are CH3; n=0], and 3-benzyloxycarbonyl-(R)-2-{[(3,5-dimethyladamantan-1-ylcarbamoyl)-propionyloxy]propyl}-trimethyl ammonium bromide [Formula 4(B); R1 and R2 are CH3; n=0; R3, R4, R5, R6 are hydrogen; and R^2 is a benzyl group] were selected for in vivo testing in mice, since both are potential prodrugs for memantine and L-carnitine through in vivo enzymatic hydrolysis of either an amide or ester linkages. Since memantine has N-methyl-D-aspartate (NMDA) antagonist properties, it was assumed that the above compounds would share these properties and therefore a test was utilized that identifies NMDA antagonist activity in vivo. Briefly, this test measures seizure activity and lethality in mice produced by the administration of NMDA […] which block these parameters in a dose-dependent manner (see Leander, J. D., et al., Brain Res. 448, 115-120 (1988), N-methyl-D-aspartate acid-induced lethality in mice: selective antagonism by phencyclidine-like drugs; Parsons, C. G., et al., Neuropharmacol. 34, 1239-1258 (1995).
as §1

| Structure (SMILES) | toxicity [1] | activity in NMDA-induced seizure/lethality test (NMDA receptors; 60 mg/kg SC) | time to lethality (NMDA receptors; 120 mg/kg SC, observed 30 min) | time to produce clonic seizures (NMDA receptors; 90 mg/kg SC, observed 30 min) | time to produce death (NMDA receptors; 90 mg/kg SC, observed 30 min) |
| --- | --- | --- | --- | --- | --- |
| CC12CC3CC(C)(C1)CC(NC(=O)C[C@@H](O)C[N+](C)(C)C)(C3)C2.[Cl-] [[3-(3,5-Dimethyl-adamantan-1-ylcarbamoyl)-(R)-2-hydroxy-propyl]-trimethylammonium chloride] | tremors, lethality in n=3 mice | inactive | slightly increased |  |  |
| CC12CC3CC(C)(C1)CC(NC(=O)CCC(=O)O[C@H](CC(=O)OCc1ccccc1)C[N+](C)(C)C)(C3)C2.[Br-] [{3-Benzyloxycarbonyl-(R)-2-[3-(3,5-Dimethyladamantan-1-ylcarbamoyl)-propionyloxy]-propyl}-trimethylammonium bromide] |  |  |  | markedly increased | markedly increased |
